According to patent EP4741406A1, “NEUROKININ-1 RECEPTOR ANTAGONIST COMPOUND” (Creadev (Nanjing) Pharmaceutical Technology Co., Ltd., priority 2023, dated 2025):
Converted amounts (≈) assume the structure as drawn.

Key:
[1] = Liver S9 stability assay (conversion to parent drug); assay type: in vitro ADME; conditions: human liver S9 with NADPH, 37 °C
Procedure: Human pooled liver S9 (Vendor: Xenotech), thawed in a 37°C water bath before use.
Weigh a certain amount of the example compound, dissolve in DMSO to prepare a 10 mM stock solution, then dilute an appropriate volume of the stock solution with DMSO to obtain a 200 µM working solution.
Take 1.5 µL of the 200 µM working solution of the example compound and add it to 238.5 µL of liver S9 working solution, pre-incubate in a 37°C water bath for 5 min; then add 60 µL of NADPH working solution to initiate the reaction and mix by gentle inversion. At the 0 min time point, transfer the above mixture into quenching solution and mix; at the 5, 15, 30, and 60 min time points, transfer the mixture into quenching solution and DMSO and mix. […] Collect the supernatant for LC-MS analysis.

[2] = In vivo pharmacokinetic study in rats, intravenous; conditions: rat, 2 mg/kg
Thermodynamic solubility = assay type: physicochemical; conditions: aqueous buffer, thermodynamic from solid; 100 mM phosphate buffer pH 7.4, room temperature, shaking 16 hours
[3] = system: red blood cell suspension; experiment: In vitro human hemolysis assay; assay type: cell-based; conditions: concentrations as high as 200 µM, 37 °C, 45 minutes
[4] = Pharmacokinetic study in crab-eating monkeys, intravenous infusion; conditions: monkey, 2 mg/kg
[5] = Plasma stability assay (conversion to parent drug); assay type: in vitro ADME; conditions: human plasma, 37 °C, 1 µM
Procedure: Human plasma (Vendor: AoNeng Biotech).
A certain amount of the compound of the examples was weighed and dissolved in DMSO to prepare a 10 mM stock solution. An aliquot of the 10 mM stock solution was diluted with DMSO to obtain a 1600 µM intermediate solution. An aliquot of the 1600 µM intermediate solution was further diluted with 45% methanol to prepare a 16 µM working solution.
• 1) Plasma was pre-incubated in a water bath at 37 °C for 5 min. • 2) 4 µL of the 16 µM working solution of the compound of the examples was added to 60 µL of plasma to give a final compound concentration of 1 µM, and the mixture was gently mixed. • 3) Samples were incubated at each time point (0, 15, 30, 60, and 120 min). After incubation, 192 µL of acetonitrile containing an internal standard was added, followed by shaking on a shaker for 1 min. The mixture was centrifuged at 3700 rpm at 4 °C for 20 min, and the supernatant was collected for LC-MS analysis.

[6] = time point 0 min, parent drug = Lorapiprant

SMILES	AUC(0-t) ([2]; whole blood) [ng·h/mL]	Cmax ([2]; whole blood) [ng/mL]	MRT inf ([2]; whole blood) [min]	Tmax ([2]; whole blood) [min]	half-life ([2]; whole blood) [min]	solubility at 16 h (Thermodynamic solubility) [mg/mL]	Parent drug% [1, 6] [%]	Parent drug% ([1]; time point 5 min) [%]	Parent drug% ([1]; time point 15 min) [%]	Parent drug% ([1]; time point 30 min) [%]	Parent drug% ([1]; time point 60 min) [%]	also measured
C[C@@H](OC[C@@]1(c2ccccc2)CC[C@]2(CCC(=O)N2)CN1C(=O)OCSSCCC(=O)O)c1cc(C(F)(F)F)cc(C(F)(F)F)c1 [Example 33]							13.2	22.5	41.9	50.0	57.3	
C[C@@H](OC[C@@]1(c2ccccc2)CC[C@]2(CCC(=O)N2)CN1C(=O)OCOP(=O)(O)O)c1cc(C(F)(F)F)cc(C(F)(F)F)c1 [Compound of formula (I), reference compound]	82.6	328	21	5	26.3							AUC(0-t) ([4]; whole blood): 688 ng·h/mL; Cmax ([4]; whole blood): 2110 ng/mL; Tmax ([4]; whole blood): 30 min; half-life ([4]; whole blood): 9.06 min
C[C@@H](OC[C@@]1(c2ccccc2)CC[C@]2(CCC(=O)N2)CN1C(=O)OCSSCCS(=O)(=O)O)c1cc(C(F)(F)F)cc(C(F)(F)F)c1 [Example 42]						13.2 (≈ 18.1 mM)	34.8	40.6	48.5	51.9	44.0	AUC(0-t) ([2]; in vivo): 9.42 ng·h/mL; Cmax ([2]; in vivo): 61.2 ng/mL; MRT inf ([2]; in vivo): 5.45 min; Tmax ([2]; in vivo): 5 min; half-life ([2]; in vivo): 4.66 min; AUC(0-t) ([4]; in vivo): 528 ng·h/mL; Cmax ([4]; in vivo): 1620 ng/mL; Tmax ([4]; in vivo): 30 min; half-life ([4]; in vivo): 6.06 min; Parent drug% [5, 6]: 6.09%; Parent drug% ([5]; time point 15 min): 52.71%; Parent drug% ([5]; time point 30 min): 60.94%; Parent drug% ([5]; time point 60 min): 53.88%; Parent drug% ([5]; time point 120 min): 66.59%

Continued, in another order:

AUC(0-t) ([2]; whole blood) [ng·h/mL]	Cmax ([2]; whole blood) [ng/mL]	MRT inf ([2]; whole blood) [min]	Tmax ([2]; whole blood) [min]	half-life ([2]; whole blood) [min]	solubility at 16 h (Thermodynamic solubility) [mg/mL]	SMILES	Parent drug% [1, 6] [%]	Parent drug% ([1]; time point 5 min) [%]	Parent drug% ([1]; time point 15 min) [%]	Parent drug% ([1]; time point 30 min) [%]	Parent drug% ([1]; time point 60 min) [%]	also measured
19.9	116	7.56	5	8.34	6.54 (≈ 8.6 mM)	C[C@@H](OC[C@@]1(c2ccccc2)CC[C@]2(CCC(=O)N2)CN1C(=O)OCSSCCCOS(=O)(=O)O)c1cc(C(F)(F)F)cc(C(F)(F)F)c1 [Example 39]						hemolytic activity [3]: no hemolytic activity
					10.9 (≈ 13.2 mM)	C[C@@H](OC[C@@]1(c2ccccc2)CC[C@]2(CCC(=O)N2)CN1C(=O)OCSSCCOCCOCCOCCC(=O)O)c1cc(C(F)(F)F)cc(C(F)(F)F)c1 [Example 47]						
